This note sets out measurements from ChEMBL document CHEMBL4004804, “Rationally designed benzopyran fused isoxazolidines and derived β2,3,3-amino alcohols as potent analgesics: Synthesis, biological evaluation and molecular docking analysis” (Eur J Med Chem, 2017).

Data set [1] has as its system Mus musculus. Nature of the data set: Analgesic activity in Swiss albino mouse assessed as inhibition of acetic acid-induced abdominal constriction at 10 mg/kg administered for 30 mins followed by acetic acid challenge measured after 30 mins relative to vehicle-treated control. The data set is classed as functional. The settings on record: 0.5 h.
Data set [2] relates to Mus musculus. Nature of the data set: Analgesic activity in Swiss albino mouse assessed as inhibition of formalin-induced paw flinching at 10 mg/kg administered for 30 mins followed by formalin challenge measured during 10 to 30 mins post formalin challenge relative to vehicle-treated control. Format: functional.
Data set [3] has as its system Mus musculus. Nature of the data set: Analgesic activity in Swiss albino mouse assessed as inhibition of formalin-induced paw flinching at 10 mg/kg administered for 30 mins followed by formalin challenge measured during first 5 mins post formalin challenge. The data set is classed as functional.
The subject of data set [4] is THP-1. Nature of the data set: Cytotoxicity against human THP1 cells assessed as decrease in cell proliferation after 24 to 48 hrs by MTT assay. Format: cell-based. A general note: Formazan colour is commonly taken as a measure of viable cells.
The test system of data set [5] is Mus musculus. Nature of the data set: Analgesic activity in Swiss albino mouse assessed as inhibition of formalin-induced paw flinching at 10 mg/kg administered for 30 mins followed by formalin challenge measured during 10 to 30 mins post formalin challenge in presence of opioid receptor antagonist naloxone. The data set is classed as functional, organism-based.

In data set [6] the test system is THP-1. Nature of the data set: Antiinflammatory activity in PMA-treated human THP1 cells assessed as inhibition of LPS-induced TNF-alpha production after 24 hrs by ELISA. As to conditions: THP-1, 24 h. Format: functional, cell-based.
In data set [7] the test system is Mus musculus. The experiment in a line: Acute toxicity in Swiss albino mouse assessed as behavioral abnormality at 50 to 2000 mg/kg after 14 days. The data set is classed as organism-based. The settings on record: in vivo, 336 h.
Data set [8] deals with Mus musculus. The experiment in a line: Analgesic activity in Swiss albino mouse assessed as inhibition of acetic acid-induced abdominal constriction at 10 mg/kg administered for 30 mins followed by acetic acid challenge measured after 30 mins in presence of opioid receptor antagonist naloxone. The data set is classed as functional, organism-based.
Data set [9] has as its system Mus musculus. Nature of the data set: Acute toxicity in Swiss albino mouse assessed as effect on liver at 2000 mg/kg after 14 days by hematoxylin and eosin staining based assay. As to conditions: in vivo, 336 h. Format: organism-based.
For data set [10], the system named is Mus musculus. The experiment in a line: Analgesic activity in Swiss albino mouse assessed as inhibition of acetic acid-induced abdominal constriction at 10 mg/kg administered for 30 mins followed by acetic acid challenge measured after 30 mins in presence of prostaglandin analogue misoprostol. Format: functional, organism-based.
The subject of data set [11] is THP-1. The experiment in a line: Antiinflammatory activity in PMA-treated human THP1 cells assessed as inhibition of LPS-induced IL-6 production after 24 hrs by ELISA. Format: functional, cell-based. The settings on record: THP-1, 24 h. (In an ELISA, binding on a coated surface is turned into a signal by an enzyme label.)
Data set [12] relates to Mus musculus. Nature of the data set: Acute toxicity in Swiss albino mouse assessed as effect on myocardium at 2000 mg/kg after 14 days by hematoxylin and eosin staining based assay. The settings on record: in vivo, 336 h. Format: organism-based.
Data set [13] concerns Mus musculus. The experiment in a line: Analgesic activity in Swiss albino mouse assessed as inhibition of acetic acid-induced abdominal constriction at 80 ug/kg administered for 30 mins followed by acetic acid challenge measured after 30 mins. The data set is classed as functional.
The subject of data set [14] is Mus musculus. Nature of the data set: Analgesic activity in Swiss albino mouse assessed as inhibition of formalin-induced paw flinching at 80 ug/kg administered for 30 mins followed by formalin challenge measured during 10 to 30 mins post formalin challenge. Format: functional.
Data set [15] concerns Mus musculus. The experiment in a line: Analgesic activity in Swiss albino mouse assessed as inhibition of acetic acid-induced abdominal constriction at 100 ug/kg administered for 30 mins followed by acetic acid challenge measured after 30 mins. Format: functional.

Structures are written as SMILES. Activity calls are given as the source filed them. No cut-off for these calls is given here. A value given as a limit tells only on which side of the number the result lay.

What is called inhibition in vivo is the percentage by which the read-out fell short of the control. Turning to `COc1ccc2c(c1)c(CC(=O)O)c(C)n2C(=O)c1ccc(Cl)cc1` [INDOMETHACIN], the inhibition in vivo at 10 mg/kg amounted to 56.7% with Mus musculus [1] and 50.6% with Mus musculus [2]. Moreover, the inhibition entry in the data set with Mus musculus [3] was “inactive”.

Usually IC50 stands for the concentration that inhibits the measured activity by half. Regarding `COc1ccc2c(c1)[C@@]1(C)[C@@H](CO2)CON1C`, the IC50 with THP-1 [4] was above 100 µM; in the data set with THP-1 [6], 4.58 µM; in the data set on THP-1 [11] it was 1.12 µM. For the same molecule, the inhibition in vivo at 10 mg/kg in the data set with Mus musculus [1] came to 69.4%; with Mus musculus [2] it was 68.3%; in the data set with Mus musculus [3], 62.7%. The inhibition result in the data set on Mus musculus [5] and in the data set on Mus musculus [8] was “inactive” in each case. The Activity result with Mus musculus [7], with Mus musculus [9] and with Mus musculus [12] was “Non-Toxic” each time. Also, the inhibition entry with Mus musculus [10] was “Active”.

Turning to `Cc1ccc2c(c1)[C@@]1(C)[C@@H](CO2)CON1C`, the inhibition in vivo at 10 mg/kg with Mus musculus [1] is 68.2%.

For `CN[C@@]1(C)c2cc(C)ccc2OC[C@H]1CO`, the inhibition in vivo at 10 mg/kg in the data set with Mus musculus [1] was found to be 59.3%.

Take `C=CCN1CC[C@]23c4c5ccc(O)c4O[C@H]2C(=O)CC[C@@]3(O)[C@H]1C5`: the inhibition entry with Mus musculus [13] and with Mus musculus [14] was “inactive” in each case.

Turning to `CN[C@@]1(C)c2cc(OC)ccc2OC[C@H]1CO`, the inhibition in vivo at 10 mg/kg in the data set on Mus musculus [1] was determined as 63.2%.

As for `CCCC[C@](C)(O)C/C=C/[C@H]1[C@H](O)CC(=O)[C@@H]1CCCCCCC(=O)OC`, the inhibition entry in the data set with Mus musculus [15] was “inactive”.
